This is an account of results in patent publication US20260125356A1, “TREATMENT OF LEISHMANIASIS” (THE UNIVERSITY OF DURHAM, priority 2022, published 2026).

Values after ≈ are worked out from the molar mass of the structure shown. Read-outs that look alike come from different tables or passages of the source.

For data set [1], the system named is L. major promastigotes. The data set is described as follows: L. major promastigote dose response assay (alamarBlue/resazurin). The class given is cell-based. The note with it: 44 hrs + 4 hrs alamarBlue/resazurin, 26° C. On the procedure: Using a standard alamarBlue™ assay, activity and selectivity were assessed using L. major promastigotes and HepG2 cells, respectively.
All parasite and human cell cultures were grown and manipulated following biosafety level 2 instructions under sterile conditions. L. major FV1, L. amazonensis (MHOM/Br/75/JOSEFA), L. donovani BOB (derived from MHOM/SD/62/1S-CL2D), T. brucei (90-13, 427 strain) and T. cruzi (Dm28c) were used throughout.
All steps were carried out under sterile conditions. Frozen stocks of the relevant Leishmania promastigote species were thawed rapidly and added to Schneider's media. Promastigotes were grown at 26° C. in Nunc EasYFlask 25 cm^2 Nunclon Delta Surface (ThermoScientific) and frozen stocks were prepared on low passage cultures (p2-4) by pelleting the cells by centrifugation and resuspending in Schneider's media with 10% DMSO. The cultures were aliquoted into cryovials (Starlab) and cooled slowly to −150° C. for long term storage.
All steps were carried out under sterile conditions. […] Cycloheximide or amphotericin B were used as positive controls and 2% DMSO was used as a negative control. alamarBlue® (ThermoFisher scientific) or resazurin solution was added to each well and incubated for a further 4 hrs at 26° C. Cell-viability was determined using a BioTek™ FLx800 microplate reader with Gen5® 1.08 data analysis software (BioTek) by monitoring fluorescence emission (λex 560/λem 590 nm). Dose response curves were fitted using sigmoidal regression analysis (GraphPad Prism 8 software) and used to calculate EC50 values.

Data set [2] deals with L. amazonensis promastigotes. The data set is described as follows: L. amazonensis promastigote dose response assay (alamarBlue/resazurin). Conditions: 44 hrs + 4 hrs alamarBlue/resazurin, 26° C., read-out: EC50 (L. amaz)/μM. Type of data set: cell-based.
For data set [3], the system named is L. donovani promastigotes. The data set is described as follows: L. donovani promastigote dose response assay (resazurin). The note with it: promastigotes, 72 hrs at 26° C., resazurin, read-out: EC50 (L. don)/μM. The class given is cell-based.
Data set [4] can be described thus: Kinetic solubility. The note with it: kinetic from dmso stock. From the text: All chemicals and solvents were sourced from commercial suppliers. Buffers were made up using purified water from a MilliQ® water purification system. Biorelevant buffers (FESSIF, FASSIF and FASSGF) were purchased from Biorelevant and made up according to manufacturer's instructions. 15% FBS (heat inactivated, South American origin, ThermoFisher scientific) in PBS (Fisher Scientific) was filter sterilised (0.22 μm Fisherbrand™ Sterile PES Syringe Filter, Fisher Scientific) before use. Sodium taurocholate was purchased from Merck.
λmax was determined for each compound from the UV-Vis absorption spectrum of a 200 LIM compound solution in buffer of interest using a Varian Cary® 100 UV-Vis Spectrophotometer. A calibration curve of λmax VS concentration was obtained by serial dilution of compound from 200 μM in the buffer of interest, correcting for background buffer absorption. For each sample, a DMSO solution of compound was incubated in buffer of interest (<5% DMSO) for 2 hrs at RT. The solution was filtered (0.22 μm Fisherbrand™ Sterile PES Syringe Filter, Fisher Scientific) or centrifuged (14,500 rpm, 10 min) to remove undissolved debris and the supernatant was removed and diluted as required. The corrected UV absorption of the supernatant at Amax Was measured using a Varian Cary® 100 UV-Vis Spectrophotometer and compared to the calibration curve to determine compound solubility.

The test system of data set [5] is T. cruzi epimastigotes. The data set is described as follows: T. cruzi epimastigote dose response assay. The class given is cell-based. Conditions: Trypanosoma cruzi; epimastigotes, 72 hours at 28° C., counted; read-out: EC50 (T. cruzi)/μM.
Data set [6] has as its system T. brucei bloodstream trypomastigotes. The data set is described as follows: T. brucei bloodstream trypomastigote dose response assay. Type of data set: cell-based. Conditions: Trypanosoma brucei; bloodstream trypomastigotes, 48 hrs, CellTiter Blue; read-out: EC50 (T. brucei)/μM.
For data set [7], the system named is S. aureus (FDA209P). The data set is described as follows: Antibacterial MIC/growth assay, S. aureus. Type of data set: cell-based. Conditions: 16 hours at 37° C., absorbance 600 nm. How it is done:
DMSO was used as a solvent control at a maximum final concentration of 10% (a greater percentage than would be achieved using the compounds at the concentrations in question). Plates were incubated at 37° C. with shaking for 16 hours before measuring absorbance at 600 nm. These values were then used to calculate percentage growth at each dilution of compound in comparison to growth in the absence of compound. The following day, the contents of each well were resuspended using a multichannel pipette, and 5 μl from each well was then applied to LB agar plates. These were incubated at 30° C. in a stationary incubator for 16 hours before imaging.

Details of data set [8]: species or system swiss albino mice. The note with it: mouse, in vivo. How it is done:
DMPK studies were performed by GVK BIO Sciences Pvt Ltd Hyderabad, India, in collaboration with LifeArc. Three swiss albino mice per experiment were inoculated (IP or oral) with compound at 10 mg kg^−1 in 10% DMSO (2 mg mL^−1) on day 1. A small blood sample (50 μL) was taken after 15 minutes, 30 minutes, 1 hr, 2 hr, 4 hr, 6 hr, 8 hr and 24 hr. Proteins were precipitated in acetonitrile and the supernatant was diluted in 1:1 methanol:water and subject to LCMS analysis. The concentration of compound in the blood was determined by comparing the peak area to a calibration curve.

Regarding `CNC(=O)c1ccc(OCCN2CCOCC2)cc1NC(=O)c1ccc([N+](=O)[O-])s1` [Compound 52, N-[2-(methylcarbamoyl)-5-[2″-(morpholin-4″-yl)ethoxy]phenyl]-5′-nitrothiophene-2′-carboxamide], the EC50 in data set [1] (Leishmania major, 48 h) worked out at 0.44 µM; in data set [2] (Leishmania amazonensis, 48 h), 0.27 µM; in data set [3] (Leishmania donovani), 0.134 µM; in data set [5] it was 13 ± 1 µM; in data set [6], 0.78 ± 0.4 µM. Also, the solubility at 2 h was more than 8000 µM in data set [4] (FASSGF, fassgf or other biorelevant); 148 µM (≈ 64.3 µg/mL) in data set [4] (FASSIF); 1870 µM (≈ 812 µg/mL) in data set [4] (FESSIF); 19.3 µM (≈ 8.39 µg/mL) in data set [4] (PBS, aqueous buffer).
`CNC(=O)c1ccc(OCCC2CCOCC2)cc1NC(=O)c1ccc([N+](=O)[O-])s1` [Compound 54, N-[2-(methylcarbamoyl)-5-[2″-(oxan-4″-yl)ethoxy]phenyl]-5′-nitrothiophene-2′-carboxamide]: the EC50 was found to be 0.33 µM in data set [1] (Leishmania major, 48 h); 0.46 µM in data set [2] (Leishmania amazonensis, 48 h); 0.34 µM in data set [3] (Leishmania donovani). Also, the solubility at 2 h was found to be 47 µM (≈ 20.4 µg/mL) in data set [4] (FESSIF) and 3.7 µM (≈ 1.6 µg/mL) in data set [4] (PBS, aqueous buffer). Besides, the “inhibition of growth of S. aureus” value in data set [7] is given as “effective at inhibiting the bacteria at low concentrations”.
In the case of “Methyl 2-(5′-nitrothiophene-2′-amido)thiophene-3-carboxylate [Compound 3]”, the EC50 was found to be 0.59 µM in data set [1], 0.91 µM in data set [2] and 0.3 µM in data set [3]. Also, in data set [8], the pharmacokinetic profile result was “poor pharmacokinetic profiles”.
Consider “N-(3-carbamoylthiophen-2-yl)-5′-nitrothiophene-2′-carboxamide [Compound 1]”, for which the values for the EC50 in data set [1], in data set [2] and in data set [3] were 0.52 µM, 0.042 µM and 0.004 µM, respectively. Also, the pharmacokinetic profile entry in data set [8] is listed as “poor pharmacokinetic profiles”.
The matching figures for “N-methyl-2-(5′-nitrothiophene-2′-amido)thiophene-3-carboxamide [Compound 2]”: 0.99 µM, 0.29 µM, 0.033 µM and “poor pharmacokinetic profiles”.
